Patent publication US8546409B2, “Methods of treatment for solid tumors” (priority 2009, dated 2013)
Values joined by “and” are separate entries in the source; they are usually repeats but may differ in a detail not shown here. Identical values can stand only once.

Legend:
OVCAR-5 = experiment: NCI panel growth inhibition, OVCAR-5; format: cell-based; details: Homo sapiens, Ovarian
Source text: (§1) Compound I has also been tested in a battery of tumor cell assays known as the NCI panel.

M14 = experiment: NCI panel growth inhibition, M14; format: cell-based; details: Homo sapiens, Melanoma
Source text: as §1

SK-MEL-28 = experiment: NCI panel growth inhibition, SK-MEL-28; format: cell-based; details: Homo sapiens, Melanoma
Source text: as §1

[1] = system: Akt phosphorylation in T47D (breast cancer); experiment: Phosphorylation of Akt in T47D cells (FIG. 4); format: cell-based; details: 10 micromolar
Source text: (§2) This distinguishes compound I from other known PI3K inhibitors in development for treatment of solid tumors, which are believed to act primarily at the p110α isoform or on p110α plus other isoforms, or even on all PI3Ks plus mTOR.

SF-539 = experiment: NCI panel growth inhibition, SF-539; format: cell-based; details: Homo sapiens, CNS Cancer
Source text: as §1

HOP-92 = experiment: NCI panel growth inhibition, HOP-92; format: cell-based; details: Homo sapiens, Non-Small Cell Lung Cancer
Source text: as §1

U251 = experiment: NCI panel growth inhibition, U251; format: cell-based; details: Homo sapiens, U-251, CNS Cancer
Source text: as §1

[2] = system: Akt phosphorylation in OVCAR-3 (ovarian cancer); experiment: Phosphorylation of Akt in OVCAR-3 cells (FIG. 4); format: cell-based; details: OVCAR-3, 10 micromolar
Source text: as §2

p110δ [3] = target: T1, p110δ (Homo sapiens, UniProt O00329); experiment: Cell-based p110δ assay: anti-FcεR1 stimulated CD63 movement to surface of basophils
T1 construct: endogenous in cells
Procedure: (§3) The p110α assay used SW3T3 cells stimulated by PDGF, and p110 kinase activity was measured by Akt phosphorylation. The p110β activity was measured by lysophosphatidic acid stimulation of Akt phosphorylation in mouse embryonic fibroblasts. The activity of p110δ was measured by anti-FcεR1 antibody cross linking stimulation of CD63 movement to the surface of basophils. Finally, the activity of p110γ was measured by fMLP stimulation of CD63 antigen movement to the cell surface of basophils.
T1 sequence (O00329 whole entry, species assumed): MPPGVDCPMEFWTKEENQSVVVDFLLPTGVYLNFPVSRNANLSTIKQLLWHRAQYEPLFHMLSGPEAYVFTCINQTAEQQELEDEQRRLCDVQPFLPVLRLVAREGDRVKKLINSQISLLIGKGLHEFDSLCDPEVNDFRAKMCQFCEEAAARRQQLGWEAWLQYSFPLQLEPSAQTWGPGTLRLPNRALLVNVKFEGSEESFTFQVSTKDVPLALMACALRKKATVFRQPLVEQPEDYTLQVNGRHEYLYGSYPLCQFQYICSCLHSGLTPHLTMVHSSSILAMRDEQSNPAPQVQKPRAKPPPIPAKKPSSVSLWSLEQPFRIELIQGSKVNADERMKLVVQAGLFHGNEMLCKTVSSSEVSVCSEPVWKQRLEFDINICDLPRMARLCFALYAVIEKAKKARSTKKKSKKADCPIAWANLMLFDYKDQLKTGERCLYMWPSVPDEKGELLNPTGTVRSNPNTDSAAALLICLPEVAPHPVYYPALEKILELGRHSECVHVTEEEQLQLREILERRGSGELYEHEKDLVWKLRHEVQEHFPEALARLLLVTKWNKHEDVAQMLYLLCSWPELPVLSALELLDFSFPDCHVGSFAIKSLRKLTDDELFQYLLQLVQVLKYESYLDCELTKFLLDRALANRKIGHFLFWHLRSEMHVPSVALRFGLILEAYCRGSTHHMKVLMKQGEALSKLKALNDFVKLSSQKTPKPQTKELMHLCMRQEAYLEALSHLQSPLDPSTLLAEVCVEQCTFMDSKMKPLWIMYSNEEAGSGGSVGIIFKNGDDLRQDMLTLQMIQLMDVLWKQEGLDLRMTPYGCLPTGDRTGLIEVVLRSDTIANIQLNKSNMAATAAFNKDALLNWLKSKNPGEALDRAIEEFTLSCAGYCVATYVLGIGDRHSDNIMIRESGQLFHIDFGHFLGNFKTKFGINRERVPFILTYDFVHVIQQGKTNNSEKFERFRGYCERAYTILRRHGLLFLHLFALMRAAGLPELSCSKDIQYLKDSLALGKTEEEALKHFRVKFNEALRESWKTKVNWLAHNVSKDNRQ
T1 sequence (P27986 whole entry partner, species assumed): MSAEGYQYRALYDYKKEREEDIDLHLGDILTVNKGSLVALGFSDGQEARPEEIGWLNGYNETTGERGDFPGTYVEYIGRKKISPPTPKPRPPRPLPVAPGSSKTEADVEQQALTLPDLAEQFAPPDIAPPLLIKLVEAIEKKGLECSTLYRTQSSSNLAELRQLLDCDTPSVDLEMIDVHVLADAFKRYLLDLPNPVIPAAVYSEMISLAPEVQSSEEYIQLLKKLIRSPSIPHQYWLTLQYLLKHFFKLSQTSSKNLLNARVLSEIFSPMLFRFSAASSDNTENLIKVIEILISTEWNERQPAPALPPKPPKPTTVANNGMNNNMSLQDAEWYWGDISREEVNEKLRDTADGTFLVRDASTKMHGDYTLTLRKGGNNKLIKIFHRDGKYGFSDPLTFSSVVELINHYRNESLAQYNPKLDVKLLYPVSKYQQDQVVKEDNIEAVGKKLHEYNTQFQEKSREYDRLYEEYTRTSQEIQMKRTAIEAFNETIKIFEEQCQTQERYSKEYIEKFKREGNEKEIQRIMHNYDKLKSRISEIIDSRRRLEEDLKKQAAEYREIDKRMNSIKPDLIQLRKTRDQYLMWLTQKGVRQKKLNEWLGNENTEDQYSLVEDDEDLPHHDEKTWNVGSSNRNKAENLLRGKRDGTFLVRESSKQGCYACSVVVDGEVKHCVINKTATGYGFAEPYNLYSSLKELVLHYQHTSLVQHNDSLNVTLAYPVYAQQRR

p110δ [4] = target: T2, p110δ (Homo sapiens, UniProt O00329); experiment: Chick embryo fibroblast (CEF) transformation assay, p110δ; format: cell-based; details: read-out: EC-50 for inhibition of functional activity of p110δ
T2 construct: expressed in transfected cells; host or cells: chick embryo fibroblasts (CEF), viral transduction
Source text: (§4) Moreover, compound I has comparatively low activity on p110α in a cell-transformation system designed to measure functional activity of these kinases, but is a potent inhibitor of both p110β and p110δ in that assay. See Example 1. This chick embryo fibroblast (CEF) transformation system has been reported as a useful way to assess the functional activity of the PI3K signaling pathway. Denley, et al., “Oncogenic signaling of class I PI3K isoforms,” Oncogene, vol. 27(18), 2561-74 (2008). Transformation of CEF cells in the assay depends upon functional kinase activity. Kang, et al., Proc. Nat'l Acad. Sci. USA, vol. 103(5), 1289-94 (2006). The readout of this assay is based on the frequency of transformation of CEF cells exposed to viral vectors carrying a specific p110 isoform of interest.
(§5) Chick embryo fibroblasts (CEF) are transduced with viral stocks with versions of the human genes for the individual PI3K isoforms p110α, p110β, p110δ and p110γ. These transduced CEF lines are then plated in a growth medium where oncogenically transformed cells form foci that can then be stained and counted. […] Denley A, Kang S, Karst U and Vogt PK, “Oncogenic signaling of class 1 PI3K isoforms.” Oncogene (2008) 27: 2561-2574. FIG. 3 illustrates the readout of this assay.
T2 sequence (O00329 whole entry): as the sequence (O00329 whole entry, species assumed) above

p110β = target: T3, p110β (Homo sapiens, UniProt P42338); experiment: Chick embryo fibroblast (CEF) transformation assay, p110β; format: cell-based; details: read-out: EC-50 for inhibition of functional activity of p110β
T3 construct: expressed in transfected cells; host or cells: chick embryo fibroblasts (CEF), viral transduction
Source text: as §4, §5

PIKC3 = PIKC3 (Homo sapiens, UniProt Q8NEB9); experiment: biochemical
Source text: This table provides IC-50's for inhibition of kinase activity of these other lipid kinases: […]

MDA-MB-435 = experiment: NCI panel growth inhibition, MDA-MB-435; format: cell-based; details: Homo sapiens, Breast Cancer
Source text: as §1

p110α = target: T4, p110α (Mus musculus, UniProt P42337); experiment: Cell-based p110α assay: PDGF-stimulated Akt phosphorylation in SW3T3 cells
T4 construct: endogenous in cells; host or cells: SW3T3 cells
Procedure: as §3

SNB-75 = experiment: NCI panel growth inhibition, SNB-75; format: cell-based; details: Homo sapiens, CNS Cancer
Source text: as §1

ACHN = experiment: NCI panel growth inhibition, ACHN; format: cell-based; details: Homo sapiens, Renal
Source text: as §1

SK-OV-3 = experiment: NCI panel growth inhibition, SK-OV-3; format: cell-based; details: Homo sapiens, Ovarian
Source text: as §1

[5] = Half-life in vivo in rats
Source text: Treatments of the invention typically involve administration of compound Ito a subject in need of treatment on a daily basis for at least one week or more than one week, often for 2-4 weeks, and sometimes for 1-3 months or more. The half-life of Compound I in vivo in mice and rats is several hours—see FIG. 6. It is thus sometimes desirable to administer compound I in multiple doses each day, in order to maintain efficacious plasma levels over a prolonged period of time. Administration may be done in two doses per day, or three doses per day, or in some embodiments, four doses per day or more, particularly when Compound I is administered orally. Alternatively, Compound I can be administered intravenously at a rate that maintains an efficacious plasma level for a prolonged period of time. Suitably, it would be administered at a rate to achieve a plasma level of at least about 1 micromolar, or at least 3 micromolar, or at least 5 micromolar.

HCT-15 = experiment: NCI panel growth inhibition, HCT-15; format: cell-based; details: Homo sapiens, Colon Cancer
Source text: as §1

HT29 = experiment: NCI panel growth inhibition, HT29; format: cell-based; details: Homo sapiens, HT-29, Colon Cancer
Source text: as §1

COLO 205 = experiment: NCI panel growth inhibition, COLO 205; format: cell-based; details: Homo sapiens, Colon Cancer
Source text: as §1

A549 = experiment: NCI panel growth inhibition, A549; format: cell-based; details: Homo sapiens, Non-Small Cell Lung Cancer
Source text: as §1

NCI-H23 = experiment: NCI panel growth inhibition, NCI-H23; format: cell-based; details: Homo sapiens, Non-Small Cell Lung Cancer
Source text: as §1

NCI-H322M = experiment: NCI panel growth inhibition, NCI-H322M; format: cell-based; details: Homo sapiens, Non-Small Cell Lung Cancer
Source text: as §1

RXF 393 = experiment: NCI panel growth inhibition, RXF 393; format: cell-based; details: Homo sapiens, Renal
Source text: as §1

DU-145 = experiment: NCI panel growth inhibition, DU-145; format: cell-based; details: Homo sapiens, Prostate
Source text: as §1

MDA-MB-231 = experiment: NCI panel growth inhibition, MDA-MB-231; format: cell-based; details: Homo sapiens, Breast Cancer
Source text: as §1

T3 sequence (P42338 whole entry): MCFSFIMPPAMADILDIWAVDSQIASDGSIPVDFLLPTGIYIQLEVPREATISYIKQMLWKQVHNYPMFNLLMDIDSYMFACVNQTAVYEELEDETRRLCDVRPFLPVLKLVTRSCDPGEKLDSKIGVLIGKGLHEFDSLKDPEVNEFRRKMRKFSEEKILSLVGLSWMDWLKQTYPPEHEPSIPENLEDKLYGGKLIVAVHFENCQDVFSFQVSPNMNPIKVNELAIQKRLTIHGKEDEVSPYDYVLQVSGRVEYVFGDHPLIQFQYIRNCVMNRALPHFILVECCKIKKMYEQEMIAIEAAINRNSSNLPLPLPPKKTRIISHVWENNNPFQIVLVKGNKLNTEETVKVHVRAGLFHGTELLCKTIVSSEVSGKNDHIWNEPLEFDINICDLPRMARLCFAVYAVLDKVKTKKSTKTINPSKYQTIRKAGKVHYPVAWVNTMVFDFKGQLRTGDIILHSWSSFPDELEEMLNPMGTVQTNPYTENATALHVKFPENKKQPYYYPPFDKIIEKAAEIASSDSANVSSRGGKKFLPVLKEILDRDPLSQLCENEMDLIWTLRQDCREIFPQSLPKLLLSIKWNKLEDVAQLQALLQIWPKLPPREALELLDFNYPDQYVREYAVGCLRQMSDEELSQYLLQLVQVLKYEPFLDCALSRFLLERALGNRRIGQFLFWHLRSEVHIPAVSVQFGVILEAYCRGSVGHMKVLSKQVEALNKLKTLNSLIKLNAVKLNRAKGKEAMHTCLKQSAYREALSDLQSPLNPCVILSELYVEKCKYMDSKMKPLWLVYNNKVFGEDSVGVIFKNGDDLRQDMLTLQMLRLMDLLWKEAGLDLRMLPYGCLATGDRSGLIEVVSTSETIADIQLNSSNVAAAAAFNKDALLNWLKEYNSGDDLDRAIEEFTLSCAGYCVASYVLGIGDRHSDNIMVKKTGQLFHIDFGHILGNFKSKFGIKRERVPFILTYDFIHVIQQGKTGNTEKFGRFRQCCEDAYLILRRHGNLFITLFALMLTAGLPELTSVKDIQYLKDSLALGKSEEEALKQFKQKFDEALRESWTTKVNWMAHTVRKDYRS
Sequence of PIKC3 (Q8NEB9 whole entry): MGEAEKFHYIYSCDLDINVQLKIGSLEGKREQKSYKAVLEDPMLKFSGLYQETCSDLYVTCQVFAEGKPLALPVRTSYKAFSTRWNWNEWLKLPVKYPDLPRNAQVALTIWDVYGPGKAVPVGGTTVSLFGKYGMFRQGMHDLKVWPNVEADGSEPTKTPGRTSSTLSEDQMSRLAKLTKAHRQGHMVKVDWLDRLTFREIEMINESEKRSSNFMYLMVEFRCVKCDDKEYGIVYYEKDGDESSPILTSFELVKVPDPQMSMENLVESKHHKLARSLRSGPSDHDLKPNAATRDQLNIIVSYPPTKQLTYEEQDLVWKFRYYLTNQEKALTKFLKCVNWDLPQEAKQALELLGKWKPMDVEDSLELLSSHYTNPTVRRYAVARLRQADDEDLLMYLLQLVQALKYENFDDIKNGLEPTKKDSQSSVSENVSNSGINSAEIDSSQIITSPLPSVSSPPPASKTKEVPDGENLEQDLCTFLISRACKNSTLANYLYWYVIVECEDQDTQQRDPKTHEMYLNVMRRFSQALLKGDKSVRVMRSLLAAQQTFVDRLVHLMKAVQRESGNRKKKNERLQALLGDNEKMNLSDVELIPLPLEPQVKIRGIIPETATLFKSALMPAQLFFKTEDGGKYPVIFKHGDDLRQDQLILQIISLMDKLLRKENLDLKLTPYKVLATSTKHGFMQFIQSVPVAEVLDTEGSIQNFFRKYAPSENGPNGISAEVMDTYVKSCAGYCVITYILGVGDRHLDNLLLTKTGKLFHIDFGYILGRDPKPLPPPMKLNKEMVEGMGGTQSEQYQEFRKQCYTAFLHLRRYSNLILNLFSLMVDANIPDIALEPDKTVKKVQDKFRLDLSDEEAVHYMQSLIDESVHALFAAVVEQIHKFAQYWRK

With `C[C@H](Nc1ncnc2[nH]cnc12)c1nc2ccc(F)cc2c(=O)n1-c1ccccc1` [Compound I] the GI50 (OVCAR-5) was 27.7 µM, the GI50 (M14) was 88.9 µM and the GI50 (SK-MEL-28) was 12.8 µM. For the same compound, the “Phosphorylation of Akt” value [1] was “inhibits phosphorylation of Akt”, the GI50 (SF-539) was 15.9 µM and the GI50 (HOP-92) was 0.3 µM. For the same compound, the GI50 (U251) was 59.6 µM, the “Phosphorylation of Akt” value [2] was “inhibits phosphorylation of Akt” and the EC50 (p110δ [3]; FB, read-out: Cell-based assay EC50 p110δ, FB) was 0.0084 µM. The EC50 (p110δ [3]; WB, read-out: Cell-based assay EC50 p110δ, WB) was 0.019 µM, the EC50 (p110δ [4]) was roughly 0.015 µM and the EC50 (p110β) was 0.15 µM and ~0.15 µM. The IC50 (PIKC3) was 2.5 µM, the GI50 (MDA-MB-435) was 43.1 µM and the EC50 (p110α) was greater than 20 µM. For the same compound, the GI50 (SNB-75) was 0.0594 µM, the GI50 (ACHN) was 10.7 µM and the GI50 (SK-OV-3) was 4.02 µM. For the same compound, the Half-life in vivo [5] was “several hours”, the GI50 (HCT-15) was 30.3 µM and the GI50 (HT29) was 16.5 µM. The GI50 (COLO 205) was 33.8 µM, the GI50 (A549) was 20.7 µM and the GI50 (NCI-H23) was 100 µM. It also gave a GI50 (NCI-H322M) of 10.5 µM, a GI50 (RXF 393) of 1.14 µM and a GI50 (DU-145) of 1.35 µM. The GI50 (MDA-MB-231) was 100 µM.
